Laboratory results reported in patent EP0034471A1, “Piperidinoquinazolines and a process for the preparation thereof” (ORION-YHTYMÄ OY, priority 1980, dated 1981).
Structures can show the parent of a compound that is named as a salt.

Experiments:
[1] = system: Spontaneously hypertensive rats of the Okamoto-Aoki strain; assay: Blood pressure lowering after oral administration in conscious spontaneously hypertensive rats (tail cuff, systolic pressure); format: in vivo; details: for The decrease of the blood pressure (mmHg) induced by the dose of 0.5 µmol/rat p.o. 1h: 1 hour after administration; for The decrease of the blood pressure (mmHg) induced by the dose of 0.5 µmol/rat p.o. 2h: 2 hours after administration; for The decrease of the blood pressure (mmHg) induced by the dose of 0.5 µmol/rat p.o. 5h: 5 hours after administration
male Wistar rats = assay: Blood pressure lowering after intravenous administration in urethane-anaesthetised rats (mean arterial pressure, femoral artery); format: in vivo; details: maximal decrease of the blood pressure
Protocol: The effect of the compounds when administered intravenously was studied with male Wistar rats, 240-290 g,which were anaesthetised with urethane (1.5 g/kg intraperitoneally). A heating pad which is controlled by a thermostate connected to the colonic thermistor probe was placed underneath the rats to keep the body temperature at' 38°C. The trachea was cannulated with a polyethylene tube and the rats were allowed to breathe spontaneously. A femoral vein was cannulated for intravenous injections of drugs. […] The pressure . signals were amplified with a pressure conditioner (HP […]). The mean arterial pressure was recorded on paper with a . chart recorder. […] A dose of 0.1 μmol/kg was injected intravenously and the maximal decrease of the blood pressure (mmHg) was measured.

SMILES	The decrease of the blood pressure (mmHg) induced by the dose of 0.5 µmol/rat p.o. 1h [1] [mmHg]	The decrease of the blood pressure (mmHg) induced by the dose of 0.5 µmol/rat p.o. 2h [1] [mmHg]	The decrease of the blood pressure (mmHg) induced by the dose of 0.5 µmol/rat p.o. 5h [1] [mmHg]	The decrease of the blood pressure (mmHg) induced by the dose of 0.1 µmol/kg i.v. (male Wistar rats) [mmHg]
COc1cc2nc(N3CCC(C(=O)N4CCCCC4)CC3)nc(N)c2cc1OC [piperidino, 2-(4-piperidinocarbonylpiperidino)-4-amino-6,7-dimethoxyquinazoline]	25	22	17	32
CCN(CC)C(=O)C1CCN(c2nc(N)c3cc(OC)c(OC)cc3n2)CC1 [A(R = diethylamino), 2-(4-diethylaminocarbonylpiperidino) 4- .amino-6,7-dimethoxyquinazoline, reference compound]	24	16	10	37
COc1cc2nc(N3CCC(C(N)=O)CC3)nc(N)c2cc1OC.Cl [amino, 2-(4-carbamoylpiperidino)-4-amino-6,7-dimethoxyquinazoline hydrochloride]	20	22	20	27
COc1cc2nc(N3CCC(C(=O)NC(C)(C)C)CC3)nc(N)c2cc1OC.Cl [t-butylamino, 2-(4-tert-butylcarbamoylpiperidino)-4-amino-6,7-dimethoxyquinazoline hydrochloride]	15	25	28	28
COc1cc2nc(N3CCC(C(=O)OCC(C)(C)C)CC3)nc(N)c2cc1OC.Cl [neopentyloxy, 2-(4-neopentyloxycarbonylpiperidino)-4-amino-6,7-dimethoxyquinazoline hydrochloride]	22	21	21	44
COc1cc2nc(N3CCC(C(=O)N4CCCCCC4)CC3)nc(N)c2cc1OC [1-azacycloheptyl, 2-(4-(azacyclohept-1-yl-carbonyl)piperi-dino)-4-amino-6,7-dimethoxyquinazoline hydrochloride]	23	27	25	47
COc1cc2nc(N3CCC(C(=O)N4CCOCC4)CC3)nc(N)c2cc1OC [B(R = morpholino), 2-(4-morpholinocarbonylpiperidino)-4-amino-6,7-dimethoxyquinazoline, reference compound]	7	5	-2	30
COc1cc2nc(N3CCC(C(=O)N4CCCCC4C)CC3)nc(N)c2cc1OC.Cl (stereo not shown) [2-methylpiperidino, 2-(4-(2-methylpiperidino)carbonylpiperidino)-4-amino-6,7-dimethoxyquinazoline hydrochloride]	15	25	28	31
COc1cc2nc(N3CCC(C(=O)N4CCCCCCC4)CC3)nc(N)c2cc1OC [1-azacyclooctyl, 2-(4-(azacyclooct-1-yl-carbonyl)piperidino-4-amino-6,7-dimethoxyquinazoline hydrochloride]	18	23	29	23
COc1cc2nc(N3CCN(C(=O)c4ccco4)CC3)nc(N)c2cc1OC [prazosin, 2-(4-(2-furoyl)-piperazin-l-yl)-4-amino-6,7-dimethoxyquinazoline, reference compound]	26	31	24	36
